In general, IC50 refers to the point on the concentration scale where inhibition reaches its midpoint. Low values mean greater potency in that assay, high ones weaker potency in that assay.

These results are taken from US8772290B2, “Alpha-arylmethoxyacrylate derivative, preparation method thereof, and pharmaceutical composition containing same” (Oscotech Inc., priority 2010, dated 2014).

Structures are written as SMILES.

The first test concerns HIF. Briefly: Assay for inhibitory activity against HIF activity (HIF1 luciferase reporter cell line). The test is classed as cell-based, human. The note with it: Homo sapiens; HEK293 HIF1 reporter cell line, 1% oxygen, 6 hours, luciferase activity 50% inhibited. From the text: In order to assay the compounds of the present invention for inhibitory activity against HIF activity, the HIF1 reporter plasmid (Panomics) that is designed to control the expression of luciferase by HIF was employed. The HIF1 reporter plasmid and the pTK-Hyg plasmid (Clontech), which carries a hygromycin resistant gene, were co-transfected into the HEK293 cell line (the Korean Cell Line Bank, KCLB No. 21573), derived from the human kidney, with the aid of Effectene transfection reagent (Qiagen). Then, the cells were cultured for 3 weeks on a medium containing 200 μg/mL hygromycin to select transformants resistant to hygromycin. The cell colonies derived from single cells were transferred to 24-well plates to secure a reporter cell line. The cells were seeded at a density of 4×10^4 cells/well into 96-well plates containing DMEM and incubated for 24 hours before treatment with the compounds of the present invention at a concentration of 25 μM, 5 μM, 1 μM, 200 nM, 40 nM, 8 nM, 1.6 nM, 320 pM, 64 pM, 12.8 pM, 2.56 pM, 512 fM, 102 fM, 20.4 fM, or an amount between any two concentrations above as shown in FIGS. 1A to 1C. Under 1% oxygen condition, the cells were incubated for 6 hours and then, the medium was removed. The cells were lyzed by incubation for 5 min with 100 μL of the mixture of Bright-Glo™ luciferase assay buffer and Bright-Glo™ luciferase assay substrate (Promega). The whole cell lysate was transferred to 96-well, white plates (PerkinElmer) and measured for luminescence using Victor™ 3 (PerkinElmer). From the luminescence measurements, IC50 (a concentration of the compound at which luciferase activity was 50% inhibited) was calculated using the GraphPad Prism™ 4 program. The results are summarized in Table 2 and illustrated in FIGS. 1A to 1C.
On the technique in general: Reporter assays use an easily measured gene product as a stand-in for the process of interest.
Compound `CO/C=C(/C(=O)OC)c1ccccc1COc1cccc(/C=N/OCCOc2ccccc2)c1` [Compound 75, (E)-methyl 2-(2-((3-((E)-(2-phenoxyethoxyimino)methyl)phenoxy)-methyl)phenyl)-3-methoxyacrylate] showed an IC50 of 150 nM.

As to `CO/C=C(/C(=O)OC)c1ccccc1COc1cccc(OCc2ccccc2)c1` [Compound 3, (E)-methyl 2-(2-((3-(benzyloxy)phenoxy)methyl)phenyl)-3-methoxyacrylate], inhibition was half-maximal at 50 nM (IC50).

`CO/C=C(/C(=O)OC)c1ccccc1COc1cccc(OCc2ccccn2)c1` [Compound 26, (E)-methyl 2-(2-((3-(pyridin-2-ylmethoxy)phenoxy)methyl)phenyl)-3-methoxyacrylate] registered an IC50 of 510 nM.

For `CO/C=C(/C(=O)OC)c1ccccc1COc1cc(C=O)ccc1OC` [Compound 6, (E)-methyl 2-(2-((5-formyl-2-methoxyphenoxy)methyl)phenyl)-3-methoxyacrylate], the IC50 amounted to 14600 nM.

`CO/C=C(/C(=O)OC)c1ccccc1COc1c(F)cc(/C=N/OCCc2ccccc2)cc1OC` [Compound 66, (E)-methyl 2-(2-((2-fluoro-6-methoxy-4-((E)-(phenethoxyimino)methyl)-phenoxy)methyl)phenyl)-3-methoxyacrylate] gave an IC50 of 900 nM.

In the case of `CO/C=C(/C(=O)OC)c1ccccc1COc1cccc(OCCNCCO)c1` [Compound 11, (E)-methyl 2-(2-((3-(2-(2-hydroxyethylamino)ethoxy)phenoxy)methyl)-phenyl)-3-methoxyacrylate], half-maximal inhibition (IC50) required 640 nM.

For `CO/C=C(/C(=O)OC)c1ccccc1COc1cc(C)c(/C=N/OCCN2CCCC2)cc1C` [Compound 53, (E)-methyl 2-(2-((2,5-dimethyl-4-((E)-(2-(pyrrolidin-1-yl)ethoxyimino)-methyl)phenoxy)methyl)phenyl)-3-methoxyacrylate], the 50% inhibitory concentration (IC50) stood at 6640 nM.

As for `CO/C=C(/C(=O)OC)c1ccccc1COc1cc(C)c(/C=N/OC2CCCC2)cc1C` [Compound 69, (E)-methyl 2-(2-((4-((E)-(cyclopentyloxyimino)methyl)-2,5-dimethylphenoxy)methyl)phenyl)-3-methoxyacrylate], the midpoint of inhibition, the IC50, lay at 30 nM.

As for `CO/C=C(/C(=O)OC)c1ccccc1COc1ccc(/C(C)=N/OCCN2CCCCC2)cc1` [Compound 9, (E)-methyl 2-(2-((4-((E)-1-(2-(piperidin-1-yl)ethoxyimino)ethyl)phenoxy)-methyl)phenyl)-3-methoxyacrylate], the IC50 was determined as 6410 nM.

As for `CO/C=C(/C(=O)OC)c1ccccc1COc1cc(C)c(/C=N/OCc2ccccn2)cc1C` [Compound 73, (E)-methyl 2-(2-((4-((E)-(pyridin-2-ylmethoxyimino)methyl)-2,5-dimethylphenoxy)methyl)phenyl)-3-methoxyacrylate], the IC50 amounted to 30 nM.

With `CCO/N=C/c1cccc(OCc2ccccc2/C(=C\OC)C(=O)OC)c1` [Compound 4, (E)-methyl 2-(2-((3-((E)-(ethoxyimino)methyl)phenoxy)methyl)phenyl)-3-methoxyacrylate], the IC50 was determined as 290 nM.

`CO/C=C(/C(=O)OC)c1ccccc1COc1cccc(OCCN2CCOCC2)c1` [Compound 76, (E)-methyl 2-(2-((3-(2-morpholinoethoxy)phenoxy)methyl)phenyl)-3-methoxyacrylate]: the IC50 was 1500 nM.

`CO/C=C(/C(=O)OC)c1ccccc1COc1cc(C)cc(O)c1C` [Compound 55, (E)-methyl 2-(2-((3-hydroxy-2,5-dimethylphenoxy)methyl)phenyl)-3-methoxyacrylate] came in with an IC50 of 3690 nM.

As to `CCCO/N=C(\C)c1cc(C)c(OCc2ccccc2/C(=C\OC)C(=O)OC)cc1C` [Compound 2, (E)-methyl 2-(2-((2,5-dimethyl-4-((E)-1-(propoxyimino)ethyl)phenoxy)-methyl)phenyl)-3-methoxyacrylate], the IC50 was 1 nM.

In the case of `CO/C=C(/C(=O)OC)c1ccccc1COc1c(F)cc(/C=N/OCc2ccccc2)cc1OC` [Compound 61, (E)-methyl 2-(2-((4-((E)-(benzyloxyimino)methyl)-2-fluoro-6-methoxyphenoxy)methyl)phenyl)-3-methoxyacrylate], the IC50 turned out to be 5540 nM.

The compound `CCCO/N=C/c1cc(C)c(OCc2ccccc2/C(=C\OC)C(=O)OC)cc1C` [Compound 49, (E)-methyl 2-(2-((2,5-dimethyl-4-((E)-(propoxyimino)methyl)phenoxy)-methyl)phenyl)-3-methoxyacrylate] returned an IC50 of 10 nM.

On to `CO/C=C(/C(=O)OC)c1ccccc1COc1ccc(/C(C)=N/OCc2ccccc2)cc1OC` [Compound 36, (E)-methyl 2-(2-((4-((E)-1-(benzyloxyimino)ethyl)-2-methoxyphenoxy)-methyl)phenyl)-3-methoxyacrylate], for which the IC50 was determined as 880 nM.

`CO/C=C(/C(=O)OC)c1ccccc1COc1cc(C)c(/C=N/OCc2ccncc2)cc1C` [Compound 74, (E)-methyl 2-(2-((4-((E)-(pyridin-4-ylmethoxyimino)methyl)-2,5-dimethylphenoxy)methyl)phenyl)-3-methoxyacrylate] yielded an IC50 of 60 nM.

In a further test the test system is tumor-induced angiogenesis (HCT116 cells). The experiment in a line: Assay for inhibitory activity against in vivo tumor-induced angiogenesis (intravital microscopy). The arrangement: species or system BALB/c mice. To be noted: 1 μmol in Matrigel with VEGF and HCT116 cells in abdominal window, four days, t-test p<0.01, FIGS. 4A and 4B. The protocol: The inhibitory activity of the compounds of the present invention against angiogenesis was examined in vivo using intravital microscopy. Titanium windows (diameter 19 mm, inner diameter 14 mm, thickness 0.7 mm) were implanted in the abdominal walls male BALB/c mice, 6-8 weeks old, which had been anesthetized. A mixture of 100 μL Matrigel™ 20 ng VEGF, 1×10^5 HCT116 or HCT116 cells, and 1 μmol compound 75 was inserted into the tissues inside the window which was then covered with a cover slip and fixed with a snap ring. Four days later, 50 μL of 25 mg/mL fluorescein isothiocyanate-labeled dextran (Mw 250,000 Sigma) was injected via the tail vein to examine angiogenesis. Mice were then placed on a Zeiss Axiovert™ 200M microscope with a filter set (440-475 nm, excitation wavelength; 530-550 nm, emission wavelength). Fluorescence images were recorded in each window by an electron-multiplying CCD camera (Photon Max™ 521, Princeton Instruments) and digitized for subsequent off-line analysis using the MetaMorph™ program (Universal Imaging). The angiogenesis was scored from 0 (least positive) to 5 (most positive). Observations and degree of angiogenesis are shown in FIGS. 4A and 4B, respectively. […] Accordingly, the compound of the present invention was identified to inhibit angiogenesis in vivo.
With `CO/C=C(/C(=O)OC)c1ccccc1COc1cccc(/C=N/OCCOc2ccccc2)c1` [Compound 75, (E)-methyl 2-(2-((3-((E)-(2-phenoxyethoxyimino)methyl)phenoxy)-methyl)phenyl)-3-methoxyacrylate], the “degree of angiogenesis (score 0 to 5) versus HCT-116 group” value is “significant difference”.
